Read-outs that look alike come from different tables or passages of the source.
What was measured:
[1] = target: T1, Cav1.3 L-type Ca channels (Rattus norvegicus, UniProt P27732); test: FLIPR Fluo-8 calcium assay, Cav1.3 channel inhibition in HEK293 cells; type: cell-based; settings: for IC50: FLIPR, HEK293, value (±SD)
T1 construct: expressed in transfected cells; host or cells: HEK293

[2] = target: Cav1.2 L-type Ca channels (Oryctolagus cuniculus, UniProt P15381); test: FLIPR Fluo-8 calcium assay, Cav1.2 channel inhibition in HEK293 cells
[3] = IC50 (μM) Cav1.3, third library
[4] = third library, ratio of IC50 Cav1.2 to Cav1.3
[5] = IC50 (μM) Cav1.2, third library, FLIPR, HEK293, value (±SD)
[6] = IC50 (μM) CaV1.3, first library
[7] = first library, ratio of IC50 Cav1.2 to Cav1.3
[8] = IC50 (μM) CaV1.2, first library, FLIPR, HEK293, value (±SD)
[9] = first library, read-out: IC50 (μM) CaV1.3
[10] = IC50 (μM) Cav1.3, second library
[11] = IC50 (μM) Cav1.2, second library, FLIPR, HEK293, value (±SD)
[12] = second library, ratio of IC50 Cav1.2 to Cav1.3
[13] = third library, read-out: IC50 (μM) Cav1.3

T1 sequence (P27732 whole entry): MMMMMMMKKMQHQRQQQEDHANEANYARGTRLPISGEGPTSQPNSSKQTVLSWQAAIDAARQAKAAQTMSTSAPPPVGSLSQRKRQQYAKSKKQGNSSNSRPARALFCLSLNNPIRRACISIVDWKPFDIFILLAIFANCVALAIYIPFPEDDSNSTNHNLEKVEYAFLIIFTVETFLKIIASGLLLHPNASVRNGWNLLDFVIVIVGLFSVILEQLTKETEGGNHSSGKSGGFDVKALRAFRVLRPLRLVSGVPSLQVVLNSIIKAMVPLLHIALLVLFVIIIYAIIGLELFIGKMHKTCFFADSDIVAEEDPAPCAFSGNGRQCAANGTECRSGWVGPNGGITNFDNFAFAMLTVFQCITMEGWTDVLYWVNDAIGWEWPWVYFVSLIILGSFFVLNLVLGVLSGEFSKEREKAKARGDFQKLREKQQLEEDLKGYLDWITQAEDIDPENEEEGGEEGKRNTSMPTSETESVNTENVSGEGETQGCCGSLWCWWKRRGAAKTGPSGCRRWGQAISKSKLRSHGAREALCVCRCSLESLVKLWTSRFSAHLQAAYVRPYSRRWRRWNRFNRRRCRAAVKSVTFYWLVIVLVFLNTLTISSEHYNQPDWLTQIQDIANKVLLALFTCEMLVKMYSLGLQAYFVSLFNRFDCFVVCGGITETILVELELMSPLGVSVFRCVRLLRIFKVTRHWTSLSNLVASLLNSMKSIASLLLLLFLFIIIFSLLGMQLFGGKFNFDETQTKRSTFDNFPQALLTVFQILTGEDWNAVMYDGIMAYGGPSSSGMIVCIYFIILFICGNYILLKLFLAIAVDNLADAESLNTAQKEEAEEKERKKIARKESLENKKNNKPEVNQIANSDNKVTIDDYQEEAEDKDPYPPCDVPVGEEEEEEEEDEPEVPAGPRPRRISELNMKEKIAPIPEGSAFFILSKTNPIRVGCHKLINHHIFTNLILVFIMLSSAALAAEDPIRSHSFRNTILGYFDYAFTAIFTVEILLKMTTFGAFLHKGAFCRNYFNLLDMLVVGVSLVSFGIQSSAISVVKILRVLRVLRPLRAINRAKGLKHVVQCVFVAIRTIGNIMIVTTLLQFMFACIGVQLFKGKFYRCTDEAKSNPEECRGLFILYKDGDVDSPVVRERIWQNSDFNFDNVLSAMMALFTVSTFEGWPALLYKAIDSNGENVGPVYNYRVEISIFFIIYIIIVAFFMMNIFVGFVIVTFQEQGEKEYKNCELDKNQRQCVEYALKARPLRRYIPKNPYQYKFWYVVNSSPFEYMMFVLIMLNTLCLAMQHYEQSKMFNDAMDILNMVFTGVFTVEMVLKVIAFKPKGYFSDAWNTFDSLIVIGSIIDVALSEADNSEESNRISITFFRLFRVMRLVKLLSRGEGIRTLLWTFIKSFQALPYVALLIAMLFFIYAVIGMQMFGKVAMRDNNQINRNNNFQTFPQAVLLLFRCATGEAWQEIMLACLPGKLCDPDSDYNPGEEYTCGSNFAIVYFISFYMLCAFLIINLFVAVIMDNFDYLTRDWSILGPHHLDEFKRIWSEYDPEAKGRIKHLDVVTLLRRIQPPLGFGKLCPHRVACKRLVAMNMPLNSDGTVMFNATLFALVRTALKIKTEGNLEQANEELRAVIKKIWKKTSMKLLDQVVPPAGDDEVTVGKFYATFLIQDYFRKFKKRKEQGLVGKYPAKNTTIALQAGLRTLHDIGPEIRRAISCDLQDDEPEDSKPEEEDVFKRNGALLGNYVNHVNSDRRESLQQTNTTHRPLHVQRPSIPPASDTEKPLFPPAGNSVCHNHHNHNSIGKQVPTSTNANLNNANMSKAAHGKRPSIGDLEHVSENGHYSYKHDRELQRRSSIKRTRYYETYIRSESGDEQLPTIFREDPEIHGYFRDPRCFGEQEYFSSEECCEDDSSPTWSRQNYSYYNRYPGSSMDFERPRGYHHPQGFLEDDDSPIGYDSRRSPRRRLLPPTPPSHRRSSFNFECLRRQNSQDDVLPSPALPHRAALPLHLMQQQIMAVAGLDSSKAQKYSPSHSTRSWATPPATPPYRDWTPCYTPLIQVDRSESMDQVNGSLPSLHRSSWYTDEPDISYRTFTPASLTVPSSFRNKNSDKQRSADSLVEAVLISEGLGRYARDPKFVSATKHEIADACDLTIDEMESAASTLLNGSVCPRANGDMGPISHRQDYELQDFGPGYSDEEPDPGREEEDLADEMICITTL
T1 sequence (P54284 whole entry partner): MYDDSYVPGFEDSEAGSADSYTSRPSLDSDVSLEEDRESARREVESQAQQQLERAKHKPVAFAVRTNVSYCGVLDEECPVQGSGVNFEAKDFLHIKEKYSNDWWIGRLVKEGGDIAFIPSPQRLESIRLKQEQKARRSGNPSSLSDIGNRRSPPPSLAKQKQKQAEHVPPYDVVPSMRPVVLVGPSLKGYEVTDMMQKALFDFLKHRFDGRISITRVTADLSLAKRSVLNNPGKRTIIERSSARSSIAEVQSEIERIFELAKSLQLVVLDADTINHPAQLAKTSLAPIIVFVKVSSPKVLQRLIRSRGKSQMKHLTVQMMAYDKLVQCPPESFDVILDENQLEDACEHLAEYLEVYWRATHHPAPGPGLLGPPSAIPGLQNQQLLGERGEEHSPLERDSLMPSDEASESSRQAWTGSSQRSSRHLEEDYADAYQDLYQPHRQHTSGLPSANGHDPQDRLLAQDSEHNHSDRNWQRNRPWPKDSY
T1 sequence (P54289 25-956 partner limits assumed): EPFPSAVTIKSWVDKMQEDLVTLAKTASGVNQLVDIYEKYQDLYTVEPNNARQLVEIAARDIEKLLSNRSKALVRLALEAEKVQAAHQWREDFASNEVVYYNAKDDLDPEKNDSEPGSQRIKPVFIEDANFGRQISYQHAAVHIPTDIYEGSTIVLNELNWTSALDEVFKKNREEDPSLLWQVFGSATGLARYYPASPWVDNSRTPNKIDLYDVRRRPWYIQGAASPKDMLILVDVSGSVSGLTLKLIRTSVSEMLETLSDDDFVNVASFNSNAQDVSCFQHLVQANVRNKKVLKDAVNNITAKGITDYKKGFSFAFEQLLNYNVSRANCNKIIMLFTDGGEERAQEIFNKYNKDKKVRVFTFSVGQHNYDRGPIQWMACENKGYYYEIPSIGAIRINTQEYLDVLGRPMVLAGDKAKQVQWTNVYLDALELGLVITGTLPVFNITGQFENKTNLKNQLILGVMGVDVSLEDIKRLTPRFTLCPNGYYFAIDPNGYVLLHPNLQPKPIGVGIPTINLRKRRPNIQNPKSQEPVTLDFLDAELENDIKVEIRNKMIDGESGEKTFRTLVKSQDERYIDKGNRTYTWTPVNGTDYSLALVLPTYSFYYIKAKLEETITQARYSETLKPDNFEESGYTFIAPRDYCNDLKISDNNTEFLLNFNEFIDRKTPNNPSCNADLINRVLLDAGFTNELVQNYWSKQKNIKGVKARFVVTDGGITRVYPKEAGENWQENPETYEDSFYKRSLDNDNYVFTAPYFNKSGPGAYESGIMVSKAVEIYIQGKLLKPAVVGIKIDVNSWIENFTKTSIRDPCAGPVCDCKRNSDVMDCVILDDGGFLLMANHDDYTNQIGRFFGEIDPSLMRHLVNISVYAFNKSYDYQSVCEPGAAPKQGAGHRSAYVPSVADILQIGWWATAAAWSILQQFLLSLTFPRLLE
T1 sequence (P54289 957-1103 partner limits assumed): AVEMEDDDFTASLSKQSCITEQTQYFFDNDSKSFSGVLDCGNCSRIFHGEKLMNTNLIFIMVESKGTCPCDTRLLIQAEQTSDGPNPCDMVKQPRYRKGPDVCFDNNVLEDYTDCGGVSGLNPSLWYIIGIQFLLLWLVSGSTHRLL

Row | SMILES | Selectivity [1, 4] | IC50 [1, 6] [µM] | Selectivity [1, 7] | IC50 [2, 8] [µM] | other results
1 | O=C1CC(=O)N(c2cccc(F)c2)C(=O)N1CCc1cccc(Cl)c1 [Compound 103] | 0.5 | – | – | – | IC50 [1, 3]: 18.6 µM; IC50 [2, 5]: 9.7 µM
2 | O=C1CC(=O)N(CCc2cccc(F)c2)C(=O)N1CCCCc1ccccc1 [Compound 42] | – | 1.6 | 3.3 | 5.3 | –
3 | O=C1CC(=O)N(CCc2ccc3ccccc3c2)C(=O)N1CCc1ccc(Cl)c(Cl)c1 [Compound 63] | – | 4 | 1.0 | 3.8 | –
4 | Cc1ccc(CCN2C(=O)CC(=O)N(CCCCc3ccccc3)C2=O)cc1 [Compound 41] | – | 1.1 | 14.1 | 15.5 | –
5 | O=C1CC(=O)N(Cc2ccc(Cl)cc2)C(=O)N1CCCc1ccccc1 [Compound 59] | – | 21.9 | 1.2 | 26 | –
6 | C=CCOC(=O)[C@H](Cc1ccccc1)N1C(=O)CC(=O)N(CCc2ccc(Cl)cc2)C1=O [Compound 37] | – | 9.4 | 1.0 | 9.1 | –
7 | CN1C(=O)CC(=O)N(Cc2cccc([N+](=O)[O-])c2)C1=O [Compound 69] | – | – | – | – | IC50 [2]: 167 µM
8 | Cc1cccc(CCN2C(=O)CC(=O)N(C3CCCCCC3)C2=O)c1 [Compound 93] | 2.3 | – | – | – | IC50 [1, 3]: 13.2 µM; IC50 [2, 5]: 30.7 µM
9 | CC(CN1C(=O)CC(=O)N(C2CCCC2)C1=O)c1ccccc1 (racemic) [Compound 96] | 17.6 | – | – | – | IC50 [1, 3]: 1 µM; IC50 [2, 5]: 16.9 µM
10 | O=C1CC(=O)N(Cc2cccc([N+](=O)[O-])c2)C(=O)N1CCc1ccc2ccccc2c1 [Compound 65] | – | 4.8 | 1.0 | 5 | –
11 | CC(Cc1ccccc1)N1C(=O)CC(=O)N(C2CCCC2)C1=O (racemic) [Compound 95] | 23.0 | – | – | – | IC50 [1, 3]: 0.7 µM; IC50 [2, 5]: 16 µM
12 | O=C1CC(=O)N(Cc2ccc([N+](=O)[O-])cc2)C(=O)N1CCCCc1ccccc1 [Compound 45] | – | 7.7 | 0.6 | 4.4 | –
13 | O=C1CC(=O)N(CCc2ccc3ccccc3c2)C(=O)N1CCCCc1ccccc1 [Compound 53] | – | 1.9 | 1.3 | 2.5 | –
14 | O=C1CC(=O)N(CC2CCCCC2)C(=O)N1CCc1ccc(Cl)cc1 [Compound 110] | 27.3 | – | – | – | IC50 [1, 3]: 1.7 µM; IC50 [2, 5]: 46.8 µM
15 | O=C1CC(=O)N(CCc2ccc(Br)cc2)C(=O)N1CCCCc1ccccc1 [Compound 40] | – | 1.1 | 1.9 | 2 | –
16 | O=C1CC(=O)N(Cc2ccc(Cl)cc2)C(=O)N1CCc1ccc(Cl)cc1 [Compound 25] | – | 2.1 | 0.9 | 1.9 | –
17 | O=C1CC(=O)N(CCc2ccc3ccccc3c2)C(=O)N1CCc1ccc2ccccc2c1 [Compound 62] | – | 2.9 | 0.6 | 1.8 | –
18 | Cc1cccc(CCN2C(=O)CC(=O)N(C3CCCC3)C2=O)c1 [Compound 97] | 49.1 | – | – | – | IC50 [1, 3]: 1.1 µM; IC50 [2, 5]: 52.1 µM
19 | CCC(C)N1C(=O)CC(=O)N(CCc2cccc(Cl)c2)C1=O (stereo not shown) [Compound 107] | 23.6 | – | – | – | IC50 [1, 3]: 1.9 µM; IC50 [2]: 45.4 µM
20 | O=C1CC(=O)N(C2CCC2)C(=O)N1CCc1cccc(Cl)c1 [Compound 99] | 5.4 | – | – | – | IC50 [1, 3]: 2.7 µM; IC50 [2]: 14.6 µM
21 | O=C1CC(=O)N(C23CC4CC(CC(C4)C2)C3)C(=O)N1CCc1cccc(Cl)c1 [Compound 115] | 0.7 | – | – | – | IC50 [1, 3]: 2.6 µM; IC50 [2, 5]: 1.9 µM
22 | O=C1CC(=O)N(C2C3CC4CC(C3)CC2C4)C(=O)N1CCc1cccc(Cl)c1 (stereo not shown) [Compound 117] | 2.0 | – | – | – | IC50 [1, 3]: 1.6 µM; IC50 [2, 5]: 3.1 µM
23 | O=C1CC(=O)N(CCc2ccc([N+](=O)[O-])cc2)C(=O)N1CCc1ccc(Cl)cc1 [Compound 23] | – | – | 0.8 | – | IC50 [1, 9]: 3.4 µM; IC50 [2]: 2.7 µM
24 | COc1ccc(CN2C(=O)CC(=O)N(C3CCCCC3)C2=O)cc1 [Compound 81] | – | – | – | – | Selectivity [1]: 2.1; IC50 [1, 10]: 32.2 µM; IC50 [2, 11]: 67.8 µM
25 | O=C1CC(=O)N(C2CCCCCC2)C(=O)N1CCc1cccc(Cl)c1 [Compound 91] | 18.5 | – | – | – | IC50 [1, 3]: 2.5 µM; IC50 [2, 5]: 45.6 µM
26 | O=C1CC(=O)N(C2CCc3ccccc32)C(=O)N1C1CCCCC1 (stereo not shown) [Compound 85] | – | – | – | – | IC50 [1, 10]: 16.4 µM; Selectivity [1, 12]: 1.2; IC50 [2, 11]: 19.2 µM
27 | N#Cc1cccc(CCN2C(=O)CC(=O)N(C3CCCCC3)C2=O)c1 [Compound 79] | – | – | – | – | IC50 [1, 10]: 10.5 µM; Selectivity [1, 12]: 3.5; IC50 [2, 11]: 36.5 µM
28 | Cc1ccc(CCN2C(=O)CC(=O)N(C3CCCCCC3)C2=O)cc1 [Compound 94] | 16.0 | – | – | – | IC50 [1, 3]: 0.9 µM; IC50 [2, 5]: 14.9 µM

Row | SMILES | Selectivity [1, 4] | IC50 [1, 6] [µM] | Selectivity [1, 7] | IC50 [2, 8] [µM] | other results
29 | O=C1CC(=O)N(CCc2ccc(Cl)c(Cl)c2)C(=O)N1CCc1ccc(Cl)cc1 [Compound 14] | – | 1.9 | 0.7 | 1.3 | –
30 | O=C1CC(=O)N(CCc2ccc3ccccc3c2)C(=O)N1CCc1ccc(F)cc1 [Compound 64] | – | 1.8 | 2.1 | 3.8 | –
31 | O=C1CC(=O)N(CCc2ccc(Cl)cc2)C(=O)N1CCCc1ccccc1 [Compound 27] | – | 1.1 | 1.9 | 2.1 | –
32 | O=C1CC(=O)N(CCc2cccc(Cl)c2)C(=O)N1CCc1ccc(Cl)cc1 [Compound 12] | – | 1.9 | 2.3 | 4.4 | –
33 | O=C1CC(=O)N([C@H]2C[C@@H]3CC[C@H]2C3)C(=O)N1CCc1cccc(Cl)c1 (racemic) [Compound 112] | – | – | – | – | IC50 [1, 13]: 1.9 µM; IC50 [2, 5]: 6.3 µM
34 | O=C1CC(=O)N(Cc2cccc([N+](=O)[O-])c2)C(=O)N1CCCc1ccccc1 [Compound 57] | – | 16.5 | 0.8 | 13 | –
35 | O=C1CC(=O)N(C2CCCCC2)C(=O)N1CCCc1ccccc1 [Compound 84] | – | – | – | – | IC50 [1, 10]: 6.3 µM; Selectivity [1, 12]: 4.9; IC50 [2, 11]: 30.5 µM
36 | O=C1CC(=O)N(C2CC2)C(=O)N1CCc1cccc(Cl)c1 [Compound 101] | 0.2 | – | – | – | IC50 [1, 3]: 26.8 µM; IC50 [2]: 5.4 µM
37 | O=C1CC(=O)N(CCc2cccc(C(F)(F)F)c2)C(=O)N1CCc1ccc(Cl)cc1 [Compound 20] | – | 0.4 | 6.2 | 2.8 | –
38 | CC(C)(C)N1C(=O)CC(=O)N(CCc2cccc(Cl)c2)C1=O [Compound 105] | 0.7 | – | – | – | IC50 [1, 3]: 10.5 µM; IC50 [2]: 7.2 µM
39 | O=C1CC(=O)N(C2C3CC4CC(C3)CC2C4)C(=O)N1CCc1ccc(Cl)cc1 (stereo not shown) [Compound 116] | 18.3 | – | – | – | IC50 [1, 3]: 2.5 µM; IC50 [2, 5]: 40.4 µM
40 | O=C1CC(=O)N(CCc2cccc(Cl)c2)C(=O)N1CCCCc1ccccc1 [Compound 38] | – | 1.3 | 4.9 | 6.2 | –
41 | O=C1CC(=O)N(CCc2ccc(Cl)cc2)C(=O)N1CCCCc1ccccc1 [Compound 26] | – | 0.9 | 0.9 | 0.8 | –
42 | O=C1CC(=O)N(C2CCC2)C(=O)N1CCc1ccc(Cl)cc1 [Compound 100] | 2.8 | – | – | – | IC50 [1, 13]: 1.8 µM; IC50 [2, 5]: 4.9 µM
43 | O=C1CC(=O)N(Cc2ccc(Cl)cc2)C(=O)N1CCc1ccc2ccccc2c1 [Compound 66] | – | 1.7 | – | – | IC50 [2]: 2.4 µM
44 | O=C1CC(=O)N(CCc2cccc(F)c2)C(=O)N1CCc1ccc(Cl)cc1 [Compound 19] | – | 1.9 | 1.5 | 2.8 | –
45 | O=C1CC(=O)N(CCc2ccc(F)cc2)C(=O)N1CCCc1ccccc1 [Compound 55] | – | – | 1.7 | 2.2 | IC50 [1, 9]: 1.3 µM
46 | O=C1CC(=O)N(CCc2ccc(Cl)cc2Cl)C(=O)N1CCc1ccc(Cl)cc1 [Compound 13] | – | 1.8 | 1.5 | 2.8 | –
47 | CC(CN1C(=O)CC(=O)N(CCc2ccc(Cl)cc2)C1=O)c1ccccc1 (stereo not shown) [Compound 21] | – | 1.3 | 5.0 | 6.2 | –
48 | O=C1CC(=O)N(C2CC2)C(=O)N1CCc1ccc(Cl)cc1 [Compound 102] | 0.3 | – | – | – | IC50 [1, 3]: 19.6 µM; IC50 [2]: 5 µM
49 | CC(CN1C(=O)CC(=O)N(CCCCc2ccccc2)C1=O)c1ccccc1 (stereo not shown) [Compound 44] | – | 2.1 | 7.7 | 15.8 | –
50 | O=C1CC(=O)N(Cc2cccc([N+](=O)[O-])c2)C(=O)N1CCc1ccc(Cl)cc1 [Compound 22] | – | 21.2 | 0.4 | 9.5 | –
51 | O=C1CC(=O)N(CCc2ccc3ccccc3c2)C(=O)N1CCc1ccc(Cl)cc1 [Compound 33] | – | 1.1 | 1.2 | – | IC50 [2]: 1.4 µM
52 | O=C1CC(=O)N(C2CCCCC2)C(=O)N1Cc1ccc(Cl)cc1 [Compound 82] | – | – | – | – | Selectivity [1]: 14.7; IC50 [1, 10]: 8.1 µM; IC50 [2, 11]: 119 µM
53 | O=C1CC(=O)N(C2CCc3ccccc32)C(=O)N1CCCCc1ccccc1 (stereo not shown) [Compound 52] | – | 5.3 | 1.1 | 5.7 | –
54 | O=C1CC(=O)N(CCc2cccc([N+](=O)[O-])c2)C(=O)N1CCc1cccc([N+](=O)[O-])c1 [Compound 70] | – | – | – | – | IC50 [2]: 173 µM
55 | COC(=O)CN1C(=O)CC(=O)N(CCc2ccc(Cl)cc2)C1=O [Compound 34] | – | 108 | – | – | –

Source: patent publication US20210186970A1, “SELECTIVE CALCIUM CHANNEL ANTAGONISTS” (Northwestern University, priority 2011, published 2021)
